Measured values: patent US20250250252A1, “PIPERIDINYLBENZONITRILE DERIVATIVES AS INHIBITORS OF GLUTAMINYL-PEPTIDE CYCLOTRANSFERASE AND GLUTAMINYL-PEPTIDE CYCLOTRANSFERASE LIKE PROTEIN” (Boehringer Ingelheim International GmbH, priority 2024, published 2025)

Experiments:
[1] = Assay C: Permeability in CACO-2 cells; format: in vitro ADME; settings: human, Assay C; for efflux ratio: Caco-2, pH 7.2, permeability B-A/permeability A-B, read-out: Efflux Ratio; for Papp A→B: pH 7.2, CACO-2 cells
Method: Caco-2 cells (1-2×10^5 cells/1 cm^2 area) are seeded on filter inserts (Costar transwell polycarbonate or PET filters, 0.4 μm pore size) and cultured (DMEM) for 10 to 25 days. Compounds are dissolved in appropriate solvent (like DMSO, 1-20 mM stock solutions). […] The transport solution (TL) is applied to the apical or basolateral donor side for measuring A-B or B-A permeability (3 filter replicates), respectively. Samples are collected at the start and end of experiment from the donor and at various time intervals for up to 2 hours also from the receiver side for concentration measurement by HPLC-MS/MS or scintillation counting. Sampled receiver volumes are replaced with fresh receiver solution.
Efflux ratio (ER)=permeability B-A/permeability A-B

[2] = tested on: murine hepatocytes; test: Assay E: Stability in murine hepatocytes; format: in vitro ADME, mouse; settings: 1 μM
Method: The metabolic degradation of the test compound is assayed in a murine hepatocyte suspension.
Murine hepatocytes (typically cryopreserved) are incubated in an appropriate buffer system (e.g. Dulbecco's modified eagle medium plus 3.5 μg glucagon/500 mL, 2.5 mg insulin/500 mL and 3.75 mg/500 mL hydrocortison) containing 5% species serum.
Following a (typically) 30 min preincubation in an incubator (37° C., 10% CO2) 5 μl of test compound solution (80 μM; from 2 mM in DMSO stock solution diluted 1:25 with medium) are added into 395 μl hepatocyte suspension (cell density in the range 0.25-5 Mio cells/mL, typically 1 Mio cells/mL; final concentration of test compound 1 μM, final DMSO concentration 0.05%).
The cells are incubated for six hours (incubator, orbital shaker) and samples (2 μl) are taken at 0, 0.5, 1, 2, 4 and 6 hours. Samples are transferred into acetonitrile and pelleted by centrifugation (5 min). The supernatant is transferred to a new 96-deepwell plate, evaporated under nitrogen and resuspended.
CLint is calculated as follows CL_[…]=Dose/AUC=(C0/CD)/(AUD+clast/k)×1000/60. C0: initial concentration in the incubation [μM], CD: cell density of vital cells [10e6cells/mL], AUD: area under the data [μM×h], clast: concentration of last data point [μM], k: slope of the regression line for parent decline [h−1].
The calculated in vitro hepatic intrinsic clearance can be scaled up to the intrinsic in vivo hepatic Clearance and used to predict hepatic in vivo blood clearance (CL) by the use of a liver model (well stirred model).
CL_[…]_INVIVO[ml/min/kg]=(CL_[…][μL/min/10e6cells]×hepatocellularity[10e6cells/g liver]×liver factor[g/kg bodyweight])/1000
CL[ml/min/kg]=CL_[…]_INVIVO[ml/min/kg]×hepatic blood flow[ml/min/kg]/(CL_[…]_INVIVO[ml/min/kg]+hepatic blood flow[ml/min/kg])
Hepatocellularity,mouse:120×10e6cells/g liver
Liver factor,mouse:55 g/kg bodyweight
Blood flow,mouse:90 ml/(min×kg)

[3] = tested on: SIRPα signalling induced by A549 cells; test: Assay B: SIRPα signalling assay using A549 cells; format: cell-based; settings: Homo sapiens, read-out: Inhibition of SIRPα signalling induced by A549 cells: IC50
Method: Two cell types are independently used: the Raji cell line (lymphoblast-like human cell line derived from B lymphocytes from a Burkitt's lymphoma patient in 1963) and A549 cells (adenocarcinomic human alveolar basal epithelial cells).
Test compounds were dissolved in 100% DMSO and serially diluted into a white 384-well microtiter cell culture plate (PerkinElmer #60076780 in case of Raji assay; PDL-coated plates Greiner #781945 in case of A549 assay). 5000 Raji cells (ATCC #CC86) or 5000 A549 cells (ATCC #CCL-185) in Assay Complete Cell Plating reagent 30 (DiscoverX 93-0563R30B) were added per well. The assay plate was incubated for 48 h at 37° C., 95% humidity and 5% CO2. 15000 reporter cells (Jurkat PathHunter SIRPαV1, DiscoverX #93-1135C19) were added to each well, and the plate was incubated for 5 h at 37° C., 95% humidity and 5% CO2. Bioassay reagent 1 of the PathHunter Bioassay detection kit (DiscoverX 93-0001) was added to each well of the plate using a multichannel pipette followed by a 15 min incubation at room temperature. Afterwards bioassay reagent 2 was added followed by 60 min incubation at room temperature (incubation in the dark).
The analysis of the data was performed using the luminescence signal generated by betagalactosidase in the PathHunter reporter cell line. The luminescence measurement was done using a Pherastar Multi-Mode Reader. Dose-response curves & IC50 data were calculated with 4-parameter sigmoidal dose response formula.

[4] = biological target: QPCT (Homo sapiens (Human), UniProt Q16769); test: Assay A: biochemical QPCT activity assay (MALDI-TOF MS); settings: read-out: Inhibition of QPCT: IC50
Chain of QPCT (Q16769 29-361): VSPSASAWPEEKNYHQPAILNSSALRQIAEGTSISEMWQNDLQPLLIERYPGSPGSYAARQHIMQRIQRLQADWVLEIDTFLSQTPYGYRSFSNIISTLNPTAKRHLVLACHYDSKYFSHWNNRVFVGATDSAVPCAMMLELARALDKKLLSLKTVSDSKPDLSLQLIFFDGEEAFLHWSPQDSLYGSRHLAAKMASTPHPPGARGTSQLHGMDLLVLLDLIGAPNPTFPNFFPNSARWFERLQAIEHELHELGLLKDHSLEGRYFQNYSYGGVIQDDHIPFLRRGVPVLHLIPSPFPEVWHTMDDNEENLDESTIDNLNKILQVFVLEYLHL
Method: (§1) QPCT or QPCTL dependent conversion of N-terminal glutamine to pyroglutamate of CD47 was monitored via MALDI-TOF MS. Test compounds were dissolved in 100% DMSO and serially diluted into clear 1,536-well microtiter plates. Enzymatic reactions were set up in assay buffer containing 20 mM Tris pH 7.5, 0.1 mM TCEP, 0.01% BSA, and 0.001% Tween20. […] The plates were incubated for 10 min in a humidified incubator at 24° C. Subsequently, 2.5 μL of CD47 peptide substrate surrogate (^19[…]^33) was added to each well (final concentration: 10 μM for QPCTL/20 μM for QPCT). The plates were mixed for 30 sec at 1,000 rpm and subsequently incubated for 40 min in a humidified incubator at 24° C. […] The plates were sealed with an adhesive foil, mixed for 30 s at 1,000 rpm and stored at room temperature until preparation of the MALDI target plates. […] QPCT or QPCTL activity was monitored by calculating the ratio between product and internal standard signals followed by normalization to high (100% activity) and low (0% activity) controls. Determination of compound potencies was obtained by fitting the dose-response data to a four-parameter logistical equation.

[5] = tested on: SIRPα signalling induced by Raji cells; test: Assay B: SIRPα signalling assay using Raji cells; format: cell-based; settings: Homo sapiens, read-out: Inhibition of SIRPα signalling induced by Raji cells: IC50
Method: Bioassay reagent 1 of the PathHunter Bioassay detection kit (DiscoverX 93-0001) was added to each well of the plate using a multichannel pipette followed by a 15 min incubation at room temperature. Afterwards bioassay reagent 2 was added followed by 60 min incubation at room temperature (incubation in the dark).
The analysis of the data was performed using the luminescence signal generated by betagalactosidase in the PathHunter reporter cell line. The luminescence measurement was done using a Pherastar Multi-Mode Reader.

[6] = tested on: CYP3A4 mRNA; test: Assay D: CYP induction screening assay in primary human hepatocytes; format: in vitro ADME; settings: 48 h
Method: Cryopreserved plateable human hepatocytes (single donor, BioIVT) were thawed and plated in Collagen-I coated 96-well-plates at a cell density of 0.07 million cells per well.
After a 6 h attachment period, the seeding medium was replaced by serum-free William's medium E supplemented with Matrigel (0.25 mg/ml) and allowed to recover overnight. 24 h post-seeding, serum-free Williams E medium containing the test compound at a final concentration of 10 μM and a final DMSO content of 0.1% and 0.1% DMSO (solvents treated control), respectively, was added to predefined wells. Exposure solutions were renewed after 24 h.
After 48 h of treatment in total, the effect of the test compounds on CYP3A4 mRNA expression was assessed using the QuantiGene Plex Gene Expression Assay. Hepatocytes were lysed and total RNA was extracted using the QuantiGene Sample Processing Kit according to the instructions of the manufacturer.
mRNA quantification was conducted using a customized QuantiGene Plex Panel to analyse CYP3A4 and the housekeeper genes RPL32, EIF4E2 and GUSB according to the instructions of the manufacturer and measured on a Luminex™ instrument. Signal was reported as median fluorescence intensity (MFI), which is proportional to the number of target RNA molecules present in the sample.
For calculation of CYP3A4 mRNA induction, the signal for CYP3A4 was normalized against the geometric mean of the signal obtained for the housekeeper genes for hepatocytes exposed to test compounds in relation to solvent-treated samples according to the following equation:
n-fold induction=(MFI CYP3A4 (treated)/Xgeo MFI (RPL32,EIF4E2,GUSB))/(MFI CYP3A4 (solvent control)/Xgeo MFI (RPL32,EIF4E2,GUSB))

[7] = biological target: QPCTL (Homo sapiens (Human), UniProt Q9NXS2); test: Assay A: biochemical QPCTL activity assay (MALDI-TOF MS); settings: read-out: Inhibition of QPCTL: IC50
Chain of QPCTL (Q9NXS2 whole entry): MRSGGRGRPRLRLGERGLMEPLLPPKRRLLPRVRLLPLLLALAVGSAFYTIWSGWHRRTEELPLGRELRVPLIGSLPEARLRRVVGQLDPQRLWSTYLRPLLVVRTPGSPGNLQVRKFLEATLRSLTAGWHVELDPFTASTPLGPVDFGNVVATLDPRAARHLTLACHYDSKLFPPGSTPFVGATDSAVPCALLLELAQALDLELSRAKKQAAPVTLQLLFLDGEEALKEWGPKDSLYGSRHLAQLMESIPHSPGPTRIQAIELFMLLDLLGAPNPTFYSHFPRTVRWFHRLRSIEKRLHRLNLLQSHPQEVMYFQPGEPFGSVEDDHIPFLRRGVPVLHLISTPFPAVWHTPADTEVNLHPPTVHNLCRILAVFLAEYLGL
Method: as §1

Structure (SMILES): Cn1cc(-c2ccc(-c3ccc(F)nc3)c(N3CCC(c4nncn4C)CC3)c2C#N)cn1 [Compound 35, reference compound]
- efflux ratio [1]: 12.2
- Papp A→B [1]: 4.9 ×10⁻⁶ cm/s
- Mouse Hepatocyte Stability QH [2]: 16%
- IC50 [3]: 9 nM
- IC50 [4]: 4 nM
- IC50 [5]: 28 nM
- n-fold induction of CYP3A4 at 10 μM [6]: 3.0 n-fold
- IC50 [7]: 2 nM

Structure (SMILES): Cn1cnnc1C1CCN(c2c(-c3ccc(F)nc3)ccc(-c3ccnc(N)c3)c2C#N)CC1 [Compound 44, reference compound]
- efflux ratio [1]: 47.9
- Papp A→B [1]: 0.5 ×10⁻⁶ cm/s
- Mouse Hepatocyte Stability QH [2]: 65%
- IC50 [3]: 67 nM
- IC50 [4]: 5 nM
- IC50 [5]: 121 nM
- n-fold induction of CYP3A4 at 10 μM [6]: 1.0 n-fold
- IC50 [7]: 1 nM

Structure (SMILES): Cn1cnnc1C1(F)CCN(c2c(C#N)cc(C(C)(C)O)cc2-c2ccc(F)nc2)CC1 [Example 1]
- efflux ratio [1]: 11.9
- Papp A→B [1]: 4.2 ×10⁻⁶ cm/s
- Mouse Hepatocyte Stability QH [2]: 23%
- IC50 [3]: 88 nM
- IC50 [4]: 1 nM
- IC50 [5]: 26 nM
- n-fold induction of CYP3A4 at 10 μM [6]: 2.2 n-fold
- IC50 [7]: 1 nM

Structure (SMILES): Cc1ncc(-c2cc(C#N)c(N3CCC(F)(c4nncn4C)CC3)c(-c3ccc(F)nc3)c2)o1 [Example 2]
- efflux ratio [1]: 3.3
- Papp A→B [1]: 26 ×10⁻⁶ cm/s
- Mouse Hepatocyte Stability QH [2]: 15%
- IC50 [3]: 36 nM
- IC50 [4]: 4 nM
- IC50 [5]: 180 nM
- n-fold induction of CYP3A4 at 10 μM [6]: 1.6 n-fold
- IC50 [7]: 2 nM

Structure (SMILES): Cc1nn(C)c(C)c1-c1cc(C#N)c(N2CCC(F)(c3nncn3C)CC2)c(-c2ccc(F)nc2)c1 [Example 3]
- efflux ratio [1]: 7.8
- Papp A→B [1]: 11 ×10⁻⁶ cm/s
- Mouse Hepatocyte Stability QH [2]: 25%
- IC50 [3]: 45 nM
- IC50 [4]: 5 nM
- IC50 [5]: 330 nM
- n-fold induction of CYP3A4 at 10 μM [6]: 1.7 n-fold
- IC50 [7]: 4 nM

Structure (SMILES): Cc1nn(C)cc1-c1cc(C#N)c(N2CCC(F)(c3nncn3C)CC2)c(-c2ccc(F)nc2)c1 [Example 4]
- efflux ratio [1]: 8.8
- Papp A→B [1]: 5 ×10⁻⁶ cm/s
- Mouse Hepatocyte Stability QH [2]: 21%
- IC50 [3]: 26 nM
- IC50 [4]: 3 nM
- IC50 [5]: 90 nM
- n-fold induction of CYP3A4 at 10 μM [6]: 2.0 n-fold
- IC50 [7]: 2 nM

Structure (SMILES): Cn1cc(-c2cc(C#N)c(N3CCC(F)(c4nncn4C)CC3)c(-c3ccc(F)nc3)c2)cn1 [Example 5]
- efflux ratio [1]: 6.7
- Papp A→B [1]: 5.4 ×10⁻⁶ cm/s
- Mouse Hepatocyte Stability QH [2]: <12%
- IC50 [3]: 25 nM
- IC50 [4]: 2 nM
- IC50 [5]: 52 nM
- n-fold induction of CYP3A4 at 10 μM [6]: 7.7 n-fold
- IC50 [7]: 2 nM

Structure (SMILES): Cn1cnnc1C1(F)CCN(c2c(C#N)cc(-c3cccnc3)cc2-c2ccc(F)nc2)CC1 [Example 6]
- efflux ratio [1]: 4.6
- Papp A→B [1]: 19 ×10⁻⁶ cm/s
- Mouse Hepatocyte Stability QH [2]: 35%
- IC50 [3]: 33 nM
- IC50 [4]: 4 nM
- IC50 [5]: 139 nM
- n-fold induction of CYP3A4 at 10 μM [6]: 1.8 n-fold
- IC50 [7]: 3 nM

Structure (SMILES): Cc1ncc(-c2cc(C#N)c(N3CCC(F)(c4nncn4C)CC3)c(-c3ccc(F)nc3)c2)cn1 [Example 7]
- efflux ratio [1]: 7.9
- Papp A→B [1]: 4.8 ×10⁻⁶ cm/s
- Mouse Hepatocyte Stability QH [2]: 48%
- IC50 [3]: 37 nM
- IC50 [4]: 4 nM
- IC50 [5]: 100 nM
- n-fold induction of CYP3A4 at 10 μM [6]: 0.7 n-fold
- IC50 [7]: 3 nM

Structure (SMILES): Cn1cnnc1C1(F)CCN(c2c(C#N)cc(-c3ccnnc3)cc2-c2ccc(F)nc2)CC1 [Example 8]
- efflux ratio [1]: 20.3
- Papp A→B [1]: 0.7 ×10⁻⁶ cm/s
- Mouse Hepatocyte Stability QH [2]: 20%
- IC50 [3]: 651 nM
- IC50 [4]: 3 nM
- IC50 [5]: 267 nM
- n-fold induction of CYP3A4 at 10 μM [6]: 0.9 n-fold
- IC50 [7]: 2 nM

Structure (SMILES): Cn1cnnc1C1(F)CCN(c2c(C#N)cc(-c3cnc(C(F)(F)F)nc3)cc2-c2ccc(F)nc2)CC1 [Example 9]
- efflux ratio [1]: 5.2
- Papp A→B [1]: 4.8 ×10⁻⁶ cm/s
- Mouse Hepatocyte Stability QH [2]: 20%
- IC50 [3]: 67 nM
- IC50 [4]: 6 nM
- IC50 [5]: 108 nM
- n-fold induction of CYP3A4 at 10 μM [6]: 1.4 n-fold
- IC50 [7]: 3 nM
